The values below come from ChEMBL document CHEMBL1127975, “Balanced angiotensin II receptor antagonists. II.1,2 4-aminomethyl- and acylaminomethylimidazoles” (Bioorg Med Chem Lett, 1994).

The target in assay [1] is T1, Type-2 angiotensin II receptor (Homo sapiens, UniProt P50052).
T1 sequence (P50052 whole entry): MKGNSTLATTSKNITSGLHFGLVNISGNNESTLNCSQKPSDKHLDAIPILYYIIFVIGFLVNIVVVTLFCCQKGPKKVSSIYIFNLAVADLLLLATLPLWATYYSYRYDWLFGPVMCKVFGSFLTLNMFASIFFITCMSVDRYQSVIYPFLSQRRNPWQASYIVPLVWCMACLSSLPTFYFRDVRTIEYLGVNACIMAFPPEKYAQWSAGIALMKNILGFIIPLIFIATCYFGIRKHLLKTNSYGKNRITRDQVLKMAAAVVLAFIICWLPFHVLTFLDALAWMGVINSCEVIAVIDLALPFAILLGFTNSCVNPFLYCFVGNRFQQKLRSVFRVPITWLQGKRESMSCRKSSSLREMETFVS
Description: In vitro binding affinity of compound against angiotensin II AT-2 receptor.

Assay [2] concerns the target T2, Type-1 angiotensin II receptor (Homo sapiens, UniProt P30556).
T2 sequence (P30556 whole entry): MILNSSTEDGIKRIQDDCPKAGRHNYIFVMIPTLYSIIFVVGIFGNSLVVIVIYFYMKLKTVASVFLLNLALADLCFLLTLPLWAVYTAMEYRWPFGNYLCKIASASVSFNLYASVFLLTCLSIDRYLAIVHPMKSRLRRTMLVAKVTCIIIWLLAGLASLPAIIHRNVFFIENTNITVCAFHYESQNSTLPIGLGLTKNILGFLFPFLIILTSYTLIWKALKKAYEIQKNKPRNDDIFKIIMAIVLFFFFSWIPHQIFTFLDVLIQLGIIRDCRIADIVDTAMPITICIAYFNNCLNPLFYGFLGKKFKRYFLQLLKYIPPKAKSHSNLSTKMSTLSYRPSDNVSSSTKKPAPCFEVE
Description: In vitro binding affinity of compound against Angiotensin II receptor, type 1.

Assay [3] deals with Rattus norvegicus. Description: Compound was tested for its antihypertensive activity after intravenous administration to renal hypertensive rats. The format is functional.
Assay [4] concerns Rattus norvegicus. Description: Compound was tested for its antihypertensive activity after oral administration to renal hypertensive rats. The format is functional.

The IC50 is the midpoint of a concentration-inhibition curve. A high value points to lower potency. On to `CCCc1nc(CN(Cc2ccccc2)C(=O)OCC(C)C)c(C(=O)O)n1Cc1ccc(-c2ccccc2-c2nn[nH]n2)cc1`, for which the concentration for half-maximal inhibition (IC50) in assay [1] turned out to be 0.8 µM; in assay [2], 0.02 µM.

Take `CCCc1nc(CNC(=O)C(c2ccccc2)c2ccccc2)c(C(=O)O)n1Cc1ccc(-c2ccccc2-c2nn[nH]n2)cc1`: the half-inhibitory concentration (IC50) in assay [1] turned out to be 0.6 µM; in assay [2] it was 0.01 µM.

Regarding `CCCc1nc(CN2CCN(c3ccccn3)CC2)c(C(=O)O)n1Cc1ccc(-c2ccccc2-c2nn[nH]n2)cc1F`, the figures for the half-inhibitory concentration (IC50) in assay [1] and in assay [2] were 0.2 µM and 0.0009 µM, respectively.

With `CCCc1nc(C(=O)N2CCN(c3ccccn3)CC2)c(C(=O)O)n1Cc1ccc(-c2ccccc2-c2nnn[nH]2)cc1`, the IC50 in assay [1] is 0.7 µM; in assay [2], 0.002 µM. The ED30 in assay [3] is 0.018 mg/kg; in assay [4], about 3 mg/kg.

With `CCCCN(Cc1ccccc1)Cc1nc(CCC)n(Cc2ccc(-c3ccccc3-c3nnn[nH]3)cc2)c1C(=O)O`, the 50% inhibitory concentration (IC50) in assay [1] was determined as 0.09 µM; in assay [2], 0.003 µM. The ED30 is 0.04 mg/kg in assay [3] and 3 mg/kg in assay [4].

Turning to `CCCCN(Cc1nc(CCC)n(Cc2ccc(-c3ccccc3S(=O)(=O)NC(=O)CCC)cc2)c1C(=O)O)C(=O)CCC`, the IC50 in assay [1] stood at 0.09 µM; in assay [2] it was 0.002 µM. Moreover, the figures for the ED30 in assay [3] and in assay [4] were 0.18 mg/kg and 1.65 mg/kg, respectively.

In the case of `CCCc1nc(CN2CCN(c3ccc(F)cc3)CC2)c(C(=O)O)n1Cc1ccc(-c2ccccc2-c2nn[nH]n2)cc1`, the half-inhibitory concentration (IC50) worked out at 0.08 µM in assay [1] and 0.003 µM in assay [2].

As for `CCCc1nc(CN2CCN(c3ccccc3Cl)CC2)c(C(=O)O)n1Cc1ccc(-c2ccccc2-c2nnn[nH]2)cc1`, the 50% inhibitory concentration (IC50) was found to be 0.6 µM in assay [1] and 0.002 µM in assay [2].

Take `CCCc1nc(CN(Cc2ccccc2)C(=O)OC(C)(C)C)c(C(=O)O)n1Cc1ccc(-c2ccccc2-c2nn[nH]n2)cc1`: the figures for the 50% inhibitory concentration (IC50) in assay [1] and in assay [2] were 1 µM and 0.009 µM, respectively.

Take `CCCc1nc(CN2CCN(c3ccccc3OC)CC2)c(C(=O)O)n1Cc1ccc(-c2ccccc2-c2nnn[nH]2)cc1`: the values for the IC50 in assay [1] and in assay [2] were 3 µM and 0.002 µM, respectively.

Consider `CCCCCC(=O)NS(=O)(=O)c1ccccc1-c1ccc(Cn2c(CCC)nc(CN3CCN(c4ccccn4)CC3)c2C(=O)O)cc1`, for which the IC50 in assay [1] turned out to be 0.02 µM; in assay [2], 0.006 µM. Further, the figures for the ED30 in assay [3] and in assay [4] were 0.13 mg/kg and over 10 mg/kg, respectively.

`CCCc1nc(CN2CCN(c3ccccc3)CC2)c(C(=O)O)n1Cc1ccc(-c2ccccc2-c2nnn[nH]2)cc1`: the concentration for half-maximal inhibition (IC50) in assay [1] is 0.05 µM; in assay [2], 0.005 µM. For the same compound, the ED30 was 0.004 mg/kg in assay [3] and over 3 mg/kg in assay [4].

As for `CCCCOC(=O)NS(=O)(=O)c1ccccc1-c1ccc(Cn2c(CCC)nc(CN3CCN(c4ccccn4)CC3)c2C(=O)O)cc1`, the half-maximal inhibitory concentration (IC50) came to 0.09 µM in assay [1] and 0.006 µM in assay [2].

As for `CCCc1nc(CN2CCN(c3ccccn3)CC2)c(C(=O)O)n1Cc1ccc(-c2ccccc2-c2nn[nH]n2)cc1`, the values for the concentration for half-maximal inhibition (IC50) in assay [1] and in assay [2] were 0.06 µM and 0.0042 µM, respectively. Besides, the results for the ED30 in assay [3] and in assay [4] were 0.003 mg/kg and over 3 mg/kg, respectively.

Consider `CCCc1nc(CN(CC(=O)O)C(=O)C(c2ccccc2)c2ccccc2)c(C(=O)O)n1Cc1ccc(-c2ccccc2-c2nn[nH]n2)cc1`, for which the figures for the half-maximal inhibitory concentration (IC50) in assay [1] and in assay [2] were 7 µM and 0.1 µM, respectively.

`CCCc1nc(CN2CCN(c3ncccn3)CC2)c(C(=O)O)n1Cc1ccc(-c2ccccc2-c2nn[nH]n2)cc1`: the IC50 was determined as 0.08 µM in assay [1] and 0.002 µM in assay [2].

For the compound `CCCc1nc(CN2CCN(c3ccccc3)C[C@H]2Cc2ccccc2)c(C(=O)O)n1Cc1ccc(-c2ccccc2-c2nn[nH]n2)cc1`, the figures for the half-inhibitory concentration (IC50) in assay [1] and in assay [2] were 1 µM and 0.01 µM, respectively.

For `CCCc1nc(CN2CCN(c3ccccc3)C[C@H]2C)c(C(=O)O)n1Cc1ccc(-c2ccccc2-c2nnn[nH]2)cc1`, the concentration for half-maximal inhibition (IC50) was determined as 0.07 µM in assay [1] and 0.002 µM in assay [2].

As to `CCCc1nc(CN2CCN(C(=O)C3CC3)CC2)c(C(=O)O)n1Cc1ccc(-c2ccccc2-c2nnn[nH]2)cc1`, the values for the IC50 in assay [1] and in assay [2] were 6 µM and 0.01 µM, respectively.

For the compound `CCCc1nc(CN2CCN(c3ccccn3)CC2)c(C(=O)O)n1Cc1ccc(-c2ccccc2S(=O)(=O)NC(=O)C2CC2)cc1`, the IC50 in assay [1] was 0.6 µM; in assay [2] it was 0.01 µM.

As for `CCCc1nc(CN2CCN(c3ccccn3)CC2)c(C=O)n1Cc1ccc(-c2ccccc2-c2nn[nH]n2)cc1`, the concentration for half-maximal inhibition (IC50) in assay [1] came out at 1 µM; in assay [2] it was 0.002 µM.

For `CCc1nc(CN2CCN(c3ccccn3)CC2)c(C(=O)O)n1Cc1ccc(-c2ccccc2-c2nnn[nH]2)cc1`, the 50% inhibitory concentration (IC50) came to 0.5 µM in assay [1] and 0.02 µM in assay [2].

Consider `CCCc1nc(CN2CCN(C(=O)C(c3ccccc3)c3ccccc3)CC2)c(C(=O)O)n1Cc1ccc(-c2ccccc2-c2nn[nH]n2)cc1`, for which the IC50 in assay [1] was determined as 1 µM; in assay [2] it was 0.01 µM.

Regarding `CCCc1nc(CNC(=O)OC(C)(C)C)c(C(=O)O)n1Cc1ccc(-c2ccccc2-c2nn[nH]n2)cc1`, the half-maximal inhibitory concentration (IC50) was 4 µM in assay [1] and 0.006 µM in assay [2].

As for `CCCc1nc(CN2CCC(c3ccccc3)CC2)c(C(=O)O)n1Cc1ccc(-c2ccccc2-c2nn[nH]n2)cc1`, the IC50 stood at 0.4 µM in assay [1] and 0.002 µM in assay [2].

With `CCCc1nc(CN2CCN(C(=O)c3ccccc3)CC2)c(C(=O)O)n1Cc1ccc(-c2ccccc2-c2nnn[nH]2)cc1`, the concentration for half-maximal inhibition (IC50) was over 10 µM in assay [1] and 0.005 µM in assay [2].

For `CCCc1nc(CN(Cc2ccccc2)C(=O)c2ccccc2)c(C(=O)O)n1Cc1ccc(-c2ccccc2S(=O)(=O)NC(=O)OCC(C)C)cc1`, the IC50 in assay [1] was found to be 0.1 µM; in assay [2], 0.008 µM.

With `CCCCCN(CCCCC)Cc1nc(CCC)n(Cc2ccc(-c3ccccc3-c3nnn[nH]3)cc2)c1C(=O)O`, the IC50 in assay [1] is 0.2 µM; in assay [2], 0.002 µM.

On to `CCCc1nc(CN2CCN(c3ccccn3)CC2)c(CO)n1Cc1ccc(-c2ccccc2-c2nn[nH]n2)cc1`, for which the half-maximal inhibitory concentration (IC50) in assay [1] is over 10 µM; in assay [2], 0.01 µM.

Turning to `CCCCc1nc(CN2CCN(c3ccccn3)CC2)c(C(=O)O)n1Cc1ccc(-c2ccccc2-c2nn[nH]n2)cc1`, the results for the IC50 in assay [1] and in assay [2] were 0.7 µM and 0.002 µM, respectively.

Turning to `CCCc1nc(CN2CCN(c3ccccn3)CC2)c(C(=O)O)n1Cc1ccc(-c2ccccc2S(=O)(=O)NC(=O)c2ccccc2)cc1`, the concentration for half-maximal inhibition (IC50) in assay [1] amounted to 0.5 µM; in assay [2], 0.006 µM.

With `CCCc1nc(CN(Cc2ccccc2)C(=O)Nc2ccccc2)c(C(=O)O)n1Cc1ccc(-c2ccccc2-c2nnn[nH]2)cc1`, the IC50 in assay [1] was 0.3 µM; in assay [2], 0.002 µM.

As to `CCCc1nc(CN(Cc2ccccc2)C(=O)Cc2ccccc2)c(C(=O)O)n1Cc1ccc(-c2ccccc2-c2nn[nH]n2)cc1`, the results for the half-maximal inhibitory concentration (IC50) in assay [1] and in assay [2] were 0.4 µM and 0.02 µM, respectively.

`CCCCc1nc(Cl)c(CO)n1Cc1ccc(-c2ccccc2-c2nnn[n-]2)cc1.[K+]` [LOSARTAN POTASSIUM]: the values for the ED30 in assay [3] and in assay [4] were 0.78 mg/kg and 0.59 mg/kg, respectively.
